The values below come from PubChem BioAssay AID1259407 (Chemical Carcinogenesis Research Information System (CCRIS), 2018).

This data set relates to CCRIS mutagenicity, Ames/micronucleus/aberration tests. As to the kind of experiment: CCRIS mutagenicity studies.
The mark [1] stands for this setting: Test System: AMES SALMONELLA TYPHIMURIUM, Strain/Indicator: TA98, Metabolic Activation: NONE, Method: PREINCUBATION
Where [2] appears, read: Test System: AMES SALMONELLA TYPHIMURIUM, Strain/Indicator: TA98, Metabolic Activation: RAT, LIVER, S-9, AROCLOR 1254, Method: STANDARD PLATE.
The mark [3] stands for this setting: Test System: AMES SALMONELLA TYPHIMURIUM, Strain/Indicator: TA100, Metabolic Activation: NONE, Method: PREINCUBATION
The mark [4] stands for this setting: Test System: AMES SALMONELLA TYPHIMURIUM, Strain/Indicator: TA100, Metabolic Activation: RAT, LIVER, S-9, AROCLOR 1254, Method: STANDARD PLATE.
[5] abbreviates: Test System: AMES SALMONELLA TYPHIMURIUM, Strain/Indicator: TA98, Metabolic Activation: NONE, Method: STANDARD PLATE.
The mark [6] stands for this setting: Test System: AMES SALMONELLA TYPHIMURIUM, Strain/Indicator: TA100, Metabolic Activation: NONE, Method: STANDARD PLATE.
[7] abbreviates: Test System: AMES SALMONELLA TYPHIMURIUM, Strain/Indicator: TA100, Metabolic Activation: RAT, LIVER, S-9, PHENOBARBITAL AND 5,6-BENZOFLAVONE, Method: PREINCUBATION
The mark [8] stands for this setting: Test System: AMES SALMONELLA TYPHIMURIUM, Strain/Indicator: TA98, Metabolic Activation: HAMSTER, LIVER, S-9, AROCLOR 1254, Method: PREINCUBATION
[9] abbreviates: Test System: AMES SALMONELLA TYPHIMURIUM, Strain/Indicator: TA98, Metabolic Activation: RAT, LIVER, S-9, AROCLOR 1254, Method: PREINCUBATION
Where [10] appears, read: Test System: AMES SALMONELLA TYPHIMURIUM, Strain/Indicator: TA100, Metabolic Activation: HAMSTER, LIVER, S-9, AROCLOR 1254, Method: PREINCUBATION
Where [11] appears, read: Test System: AMES SALMONELLA TYPHIMURIUM, Strain/Indicator: TA100, Metabolic Activation: RAT, LIVER, S-9, AROCLOR 1254, Method: PREINCUBATION
Setting [12] is: Test System: AMES SALMONELLA TYPHIMURIUM, Strain/Indicator: TA1535, Metabolic Activation: HAMSTER, LIVER, S-9, AROCLOR 1254, Method: PREINCUBATION
[13] abbreviates: Test System: AMES SALMONELLA TYPHIMURIUM, Strain/Indicator: TA1535, Metabolic Activation: NONE, Method: PREINCUBATION
[14] abbreviates: Test System: AMES SALMONELLA TYPHIMURIUM, Strain/Indicator: TA1535, Metabolic Activation: RAT, LIVER, S-9, AROCLOR 1254, Method: PREINCUBATION
Setting [15] is: Test System: AMES SALMONELLA TYPHIMURIUM, Strain/Indicator: TA1537, Metabolic Activation: HAMSTER, LIVER, S-9, AROCLOR 1254, Method: PREINCUBATION
Where [16] appears, read: Test System: AMES SALMONELLA TYPHIMURIUM, Strain/Indicator: TA1537, Metabolic Activation: NONE, Method: PREINCUBATION
Setting [17] is: Test System: AMES SALMONELLA TYPHIMURIUM, Strain/Indicator: TA1537, Metabolic Activation: RAT, LIVER, S-9, AROCLOR 1254, Method: PREINCUBATION

Activity calls are given as the source filed them. No rule for the calls is given here.

Regarding `Cc1ccc2nc3c(ccc4ccccc43)c(C)c2c1`, the mutagenic call is, setting by setting: (Test System: AMES SALMONELLA TYPHIMURIUM, Strain/Indicator: TA97A, Metabolic Activation: NONE, Method: PREINCUBATION) “inactive; negative”; under setting [1], “inactive; negative”; under setting [2], “active; positive”; under setting [3], “inactive; negative”; under setting [4], “active; positive”; (Test System: AMES SALMONELLA TYPHIMURIUM, Strain/Indicator: TA102, Metabolic Activation: NONE, Method: PREINCUBATION) “active; positive”. Besides, the mutagenic call reads like this: (Test System: E. COLI, Strain/Indicator: WP2 UVRA, Metabolic Activation: HAMSTER, LIVER, S-9, AROCLOR 1254, Method: STANDARD PLATE) “inactive; negative”; (Test System: E. COLI, Strain/Indicator: WP2 UVRA, Metabolic Activation: HAMSTER, LIVER, S-9, Method: STANDARD PLATE) “inactive; negative”; (Test System: E. COLI, Strain/Indicator: WP2 UVRA, Metabolic Activation: MOUSE, LIVER, S-9, AROCLOR 1254, Method: STANDARD PLATE) “inactive; negative”; (Test System: E. COLI, Strain/Indicator: WP2 UVRA, Metabolic Activation: MOUSE, LIVER, S-9, Method: STANDARD PLATE) “inactive; negative”; (Test System: E. COLI, Strain/Indicator: WP2 UVRA, Metabolic Activation: NONE, Method: STANDARD PLATE) “inactive; negative”; (Test System: E. COLI, Strain/Indicator: WP2 UVRA, Metabolic Activation: RAT, LIVER, S-9, AROCLOR 1254, Method: STANDARD PLATE) “inactive; negative”. Also, the mutagenic call (Test System: E. COLI, Strain/Indicator: WP2 UVRA, Metabolic Activation: RAT, LIVER, S-9, Method: STANDARD PLATE) was “inactive; negative”.

`CC(C)(C)OC(=O)O/N=C(/C#N)c1ccccc1`: the mutagenic call by setting is: under setting [5], “inactive; negative”; under setting [2], “inactive; negative”; under setting [6], “inactive; negative”; under setting [4], “inactive; negative”; (Test System: AMES SALMONELLA TYPHIMURIUM, Strain/Indicator: TA1535, Metabolic Activation: NONE, Method: STANDARD PLATE) “inactive; negative”; (Test System: AMES SALMONELLA TYPHIMURIUM, Strain/Indicator: TA1535, Metabolic Activation: RAT, LIVER, S-9, AROCLOR 1254, Method: STANDARD PLATE) “inactive; negative”. For the same compound, the mutagenic call was “inactive; negative” (Test System: AMES SALMONELLA TYPHIMURIUM, Strain/Indicator: TA1537, Metabolic Activation: NONE, Method: STANDARD PLATE) and “inactive; negative” (Test System: AMES SALMONELLA TYPHIMURIUM, Strain/Indicator: TA1537, Metabolic Activation: RAT, LIVER, S-9, AROCLOR 1254, Method: STANDARD PLATE).

`Clc1ccc2ccccc2n1`: the mutagenic call under setting [1] was “inactive; negative”; the mutagenic call (Test System: AMES SALMONELLA TYPHIMURIUM, Strain/Indicator: TA98, Metabolic Activation: RAT, LIVER, S-9, Method: PREINCUBATION) is “inactive; negative”; the mutagenic call under setting [3] was “inactive; negative”; the mutagenic call under setting [7] was “inactive; negative”; the mutagenic call (Test System: AMES SALMONELLA TYPHIMURIUM, Strain/Indicator: TA100, Metabolic Activation: RAT, LIVER, S-9, Method: PREINCUBATION) was “inactive; negative”.

For the compound `C=CC(=O)NC(C)(C)CC(C)=O`, the mutagenic call under setting [8] was “inactive; negative”; the mutagenic call under setting [1] is “inactive; negative”; the mutagenic call under setting [9] is “inactive; negative”; the mutagenic call under setting [10] is “inactive; negative”; the mutagenic call under setting [3] is “inactive; negative”; the mutagenic call under setting [11] is “inactive; negative”. Besides, the mutagenic call was “inactive; negative” under setting [12]; “inactive; negative” under setting [13]; “inactive; negative” under setting [14]; “inactive; negative” under setting [15]; “inactive; negative” under setting [16]; “inactive; negative” under setting [17].

As for `COc1cc(O)c2c(=O)c3cc(OC)ccc3oc2c1`, the mutagenic call is “active; positive” (Test System: AMES SALMONELLA TYPHIMURIUM, Strain/Indicator: TA97, Metabolic Activation: RAT, LIVER, S-9, PHENOBARBITAL AND 5,6-BENZOFLAVONE, Method: PREINCUBATION); “inactive; negative” (Test System: AMES SALMONELLA TYPHIMURIUM, Strain/Indicator: TA98, Metabolic Activation: RAT, LIVER, S-9, PHENOBARBITAL AND 5,6-BENZOFLAVONE, Method: PREINCUBATION); “active; positive” under setting [7]; “active; positive” (Test System: AMES SALMONELLA TYPHIMURIUM, Strain/Indicator: TA2637, Metabolic Activation: RAT, LIVER, S-9, PHENOBARBITAL AND 5,6-BENZOFLAVONE, Method: PREINCUBATION).

For `COc1ccc(O)cc1`, the mutagenic call by setting is: (Test System: AMES SALMONELLA TYPHIMURIUM, Strain/Indicator: TA97, Metabolic Activation: NONE, Method: STANDARD PLATE) “inactive; negative”; (Test System: AMES SALMONELLA TYPHIMURIUM, Strain/Indicator: TA97, Metabolic Activation: S-9, Method: STANDARD PLATE) “inactive; negative”; under setting [8], “inactive; negative”; under setting [1], “inactive; negative”; under setting [5], “inactive; negative”; under setting [9], “inactive; negative”. Further, the mutagenic call by setting is: (Test System: AMES SALMONELLA TYPHIMURIUM, Strain/Indicator: TA98, Metabolic Activation: S-9, Method: STANDARD PLATE) “inactive; negative”; under setting [10], “inactive; negative”; under setting [3], “inactive; negative”; under setting [6], “inactive; negative”; under setting [11], “inactive; negative”; (Test System: AMES SALMONELLA TYPHIMURIUM, Strain/Indicator: TA100, Metabolic Activation: S-9, Method: STANDARD PLATE) “inactive; negative”. For the same compound, the mutagenic call was “inactive; negative” (Test System: AMES SALMONELLA TYPHIMURIUM, Strain/Indicator: TA102, Metabolic Activation: NONE, Method: STANDARD PLATE); “inactive; negative” (Test System: AMES SALMONELLA TYPHIMURIUM, Strain/Indicator: TA102, Metabolic Activation: S-9, Method: STANDARD PLATE); “inactive; negative” under setting [12]; “inactive; negative” under setting [13]; “inactive; negative” under setting [14]; “inactive; negative” under setting [15]. Besides, the mutagenic call is “inactive; negative” under setting [16]; “inactive; negative” under setting [17]; “inactive; negative” (Test System: E.COLI, Strain/Indicator: WP2 (PKM101), Metabolic Activation: NONE, Method: STANDARD PLATE); “inactive; negative” (Test System: E.COLI, Strain/Indicator: WP2 (PKM101), Metabolic Activation: S-9, Method: STANDARD PLATE).

Take `O=[N+]([O-])c1cccc2cnsc12`: the mutagenic call under setting [6] was “active; positive”.
